These results are taken from BindingDB's records for doi:10.1016/j.bmcl.2019.126899 (Sanford Burnham Prebys Medical Discovery Institute, 2020).

This assay in a line: Inhibition of CXCR6-mediated cell invasion in human SKHEP1 cells after 72 hrs by transwell assay.

With `COc1cc(C(=O)N[C@@H]2C[C@H]3CCC[C@@H](C2)N3Cc2nc3c(C(F)(F)F)cccc3s2)cc(OC)c1OC`, the IC50 (as a rule, the concentration at which inhibition is half-maximal) is 2100 nM.
